Results on 21 compounds are retold here after patent US8957093B2, “N-biphenylmethylindole modulators of PPARG” (The Scripps Research Institute, priority 2011, dated 2015).

The target of one test is GST-PPARG-LBD (Homo sapiens (Human), UniProt P37231). As to the kind of experiment: Lanthascreen PPARG competitive binding assay (Invitrogen, TR-FRET). Conditions: Lanthascreen competitive binding; NA = not active; inc = incomplete curve; read-out: IC50 (nM) Lantha. The gist of the method: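 Values are fold change in 520 nm/490 nm FRET ratio relative to a 2% DMSO no-ligand control, excitation 340 nm. Compound dilutions starting at 10 μM competed against 5 nM Fluormone Pan-PPAR Green for GST-PPARG-LBD bound by 5 nM Tb anti-GST antibody. Incubation 2 h in the dark in assay buffer C, triplicate wells.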
GST-PPARG-LBD, sequence (P37231 238-503): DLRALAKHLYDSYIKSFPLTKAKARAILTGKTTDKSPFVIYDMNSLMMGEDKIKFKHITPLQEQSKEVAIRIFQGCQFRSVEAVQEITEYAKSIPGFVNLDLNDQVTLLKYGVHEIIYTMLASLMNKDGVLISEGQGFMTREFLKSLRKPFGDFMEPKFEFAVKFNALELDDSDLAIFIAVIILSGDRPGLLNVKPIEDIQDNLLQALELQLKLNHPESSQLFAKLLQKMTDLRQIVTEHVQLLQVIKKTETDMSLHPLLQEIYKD
For orientation: Time-resolved FRET reads energy transfer from a long-lived donor to a nearby acceptor.

Test [1] deals with Gal-4-PPAR (human PPAR LBD fused to GAL4 DNA-binding domain) (Homo sapiens (Human), UniProt P37231). The test can be described thus: GAL4-PPARG LBD / UAS-luciferase transactivation assay in HEK 293T cells. The format is cell-based.
Gal-4-PPAR (human PPAR LBD fused to GAL4 DNA-binding domain), sequence (P37231 238-503): as above
The mark [2] stands for this setting: GAL4 transactivation, HEK 293T cells; NA = not active; read-out: EC50 (nM) GAL4.
Setting [3] is: HEK-293T, 18 h; read-out: % transactivation at 10 μM (GAL4).
[4] abbreviates: HEK-293T, 18 h, read-out: % transactivation at 10 μM (GAL4).

Read-outs that look alike come from different tables or passages of the source.

What is called IC50 is the point on the concentration scale where inhibition reaches its midpoint. In general, EC50 refers to the concentration that produces a half-maximal response. In the case of `Cc1c(C)n(Cc2ccc(-c3ccccc3C(=O)O)cc2)c2ccc(C(=O)N[C@@H](C)[C@@H]3CCCN3C(=O)OCc3ccccc3)cc12` [Example 237, 4′-((5-(((S)-1-((S)-1-((benzyloxy)carbonyl)pyrrolidin-2-yl)ethyl)carbamoyl)-2,3-dimethyl-1H-indol-1-yl)methyl)-[1,1′-biphenyl]-2-carboxylic acid], the IC50 at GST-PPARG-LBD was determined as 118 nM. Further, the EC50 in test [1] (setting [2]) was determined as 417 nM. Moreover, the activation at 10 µM in test [1] (setting [3]) is 30%.

On to `Cc1c(C)n(Cc2ccc(-c3ccccc3C(=O)O)cc2)c2ccc(C(=O)N[C@@H](C)[C@H]3CCCN3C(=O)OCc3ccccc3)cc12` [Example 238, 4′-((5-(((S)-1-((R)-1-((benzyloxy)carbonyl)pyrrolidin-2-yl)ethyl)carbamoyl)-2,3-dimethyl-1H-indol-1-yl)methyl)-[1,1′-biphenyl]-2-carboxylic acid], for which the IC50 at GST-PPARG-LBD came out at 20 nM. Besides, in test [1] (setting [2]), the EC50 is 193 nM. Besides, the activation at 10 µM in test [1] (setting [3]) was found to be 55%.

On to `Cc1c(C)n(Cc2ccc(-c3ccccc3C(=O)O)cc2)c2ccc(C(=O)N[C@H](C)c3cc(F)ccc3C(F)(F)F)cc12` [Example 239, (R)-4′-((5-((1-(5-fluoro-2-(trifluoromethyl)phenyl)ethyl)carbamoyl)-2,3-dimethyl-1H-indol-1-yl)methyl)-[1,1′-biphenyl]-2-carboxylic acid], for which the IC50 on GST-PPARG-LBD is 17 nM. Also, in test [1] (setting [2]), the EC50 came to 169 nM. For the same compound, the activation at 10 µM in test [1] (setting [4]) was determined as 15%.

`Cc1c(C)n(Cc2ccc(-c3ccccc3C(=O)O)cc2)c2ccc(C(=O)N[C@@H](C)[C@@H]3CCN(C(=O)OCc4ccccc4)C3)cc12` [Example 240, 4′-((5-(((S)-1-((R)-1-((benzyloxy)carbonyl)pyrrolidin-3-yl)ethyl)carbamoyl)-2,3-dimethyl-1H-indol-1-yl)methyl)-[1,1′-biphenyl]-2-carboxylic acid]: the 50% inhibitory concentration (IC50) at GST-PPARG-LBD was found to be 58 nM. Moreover, the EC50 in test [1] (setting [2]) was 1300 nM. For the same compound, the activation at 10 µM in test [1] (setting [3]) stood at 25%.

As to `Cc1c(C)n(Cc2ccc(-c3ccccc3C(=O)O)cc2)c2ccc(C(=O)N[C@@H](C)c3cc(F)ccc3C(F)(F)F)cc12` [Example 241, (S)-4′-((5-((1-(5-fluoro-2-(trifluoromethyl)phenyl)ethyl)carbamoyl)-2,3-dimethyl-1H-indol-1-yl)methyl)-[1,1′-biphenyl]-2-carboxylic acid], the IC50 at GST-PPARG-LBD was determined as 57 nM. Besides, the EC50 in test [1] (setting [2]) amounted to 453 nM. For the same compound, in test [1] (setting [4]), the activation at 10 µM turned out to be 20%.

As to `Cc1c(C)n(Cc2ccc(-c3ccccc3-c3nn[nH]n3)cc2)c2ccc(C(=O)N[C@@H](C)c3cccc(C(C)C)c3)cc12` [Example 243, (S)-1-((2′-(2H-tetrazol-5-yl)-[1,1′-biphenyl]-4-yl)methyl)-N-(1-(3-isopropylphenyl)ethyl)-2,3-dimethyl-1H-indole-5-carboxamide], the IC50 on GST-PPARG-LBD came to 22 nM. This compound gave an EC50 in test [1] of 1600 nM. For the same compound, the activation at 10 µM in test [1] (setting [3]) is 10%.

With `Cc1c(C)n(Cc2ccc(-c3ccccc3-c3noc(=O)[nH]3)cc2)c2ccc(C(=O)N[C@@H](C)c3cccc(C(C)C)c3)cc12` [Example 244, (S)—N-(1-(3-isopropylphenyl)ethyl)-2,3-dimethyl-1-((2′-(5-oxo-4,5-dihydro-1,2,4-oxadiazol-3-yl)-[1,1′-biphenyl]-4-yl)methyl)-1H-indole-5-carboxamide], at GST-PPARG-LBD, the IC50 is 40 nM. In addition, the EC50 in test [1] is 921 nM. In test [1] (setting [3]), the activation at 10 µM worked out at 8%.

In the case of `Cc1c(C)n(Cc2ccc(-c3ccccc3-c3n[nH]c(=O)o3)cc2)c2ccc(C(=O)N[C@@H](C)c3cccc(C(C)C)c3)cc12` [Example 245, (S)—N-(1-(3-isopropylphenyl)ethyl)-2,3-dimethyl-1-((2′-(5-oxo-4,5-dihydro-1,3,4-oxadiazol-2-yl)-[1,1′-biphenyl]-4-yl)methyl)-1H-indole-5-carboxamide], the IC50 at GST-PPARG-LBD was found to be 7 nM. In test [1], this compound gave an EC50 of 454 nM. For the same compound, in test [1] (setting [3]), the activation at 10 µM worked out at 10%.

`CCCc1ccc([C@H](C)NC(=O)c2ccc3c(c2)c(C)c(C)n3Cc2ccc(-c3ccccc3C(=O)O)cc2)cc1` [Example 251, (S)-4′-((2,3-dimethyl-5-(1-(4-propylphenyl)ethylcarbamoyl)-1H-indol-1-yl)methyl)biphenyl-2-carboxylic acid]: on GST-PPARG-LBD, the IC50 was 40 nM. In test [1] (setting [2]), the EC50 worked out at 1610 nM. Further, in test [1] (setting [3]), the activation at 10 µM amounted to 30%.

With `Cc1c(C)n(Cc2ccc(-c3ccccc3C(=O)O)cc2)c2ccc(C(=O)NC(C)c3cncc(C4CC4)c3)cc12` (stereo not drawn) [Example 259, 4′-((5-(1-(5-cyclopropylpyridin-3-yl)ethylcarbamoyl)-2,3-dimethyl-1H-indol-1-yl)methyl)biphenyl-2-carboxylic acid], the IC50 at GST-PPARG-LBD amounted to 19 nM. Moreover, the EC50 in test [1] (setting [2]) was 1480 nM. In test [1] (setting [3]), the activation at 10 µM stood at 15%.

In the case of `Cc1c(C)n(Cc2ccc(-c3ccccc3C(=O)O)cc2)c2ccc(C(=O)N[C@@H](C)c3ccc(Br)cn3)cc12` [Example 260, (S)-4′-((5-((1-(5-bromopyridin-2-yl)ethyl)carbamoyl)-2,3-dimethyl-1H-indol-1-yl)methyl)-[1,1′-biphenyl]-2-carboxylic acid], the half-inhibitory concentration (IC50) on GST-PPARG-LBD stood at 2 nM. Also, the EC50 in test [1] (setting [2]) is 42 nM. The activation at 10 µM in test [1] (setting [3]) is 25%.

Take `Cc1c(C)n(Cc2ccc(-c3ccccc3C(=O)O)cc2)c2ccc(C(=O)N[C@@H](C)c3ccc(C4CC4)cn3)cc12` [Example 261, (S)-4′-((5-((1-(5-cyclopropylpyridin-2-yl)ethyl)carbamoyl)-2,3-dimethyl-1H-indol-1-yl)methyl)-[1,1′-biphenyl]-2-carboxylic acid]: the IC50 on GST-PPARG-LBD stood at 4 nM. The EC50 in test [1] (setting [2]) worked out at 50 nM. Also, in test [1] (setting [3]), the activation at 10 µM is 30%.

Regarding `Cc1c(C)n(Cc2ccc(-c3ccccc3C(=O)O)cc2)c2ccc(C(=O)N[C@@H](C)c3ccc(Cl)nc3)cc12` [Example 262, (S)-4′-((5-((1-(6-chloropyridin-3-yl)ethyl)carbamoyl)-2,3-dimethyl-1H-indol-1-yl)methyl)-[1,1′-biphenyl]-2-carboxylic acid], the IC50 at GST-PPARG-LBD turned out to be 144 nM. The EC50 in test [1] (setting [2]) stood at 4000 nM. In addition, the activation at 10 µM in test [1] (setting [3]) amounted to 35%.

For `Cc1c(C)n(Cc2ccc(-c3ccccc3C(=O)O)cc2)c2ccc(C(=O)N[C@@H](C)c3ccc(C4CC4)nc3)cc12` [Example 263, (S)-4′-((5-((1-(6-cyclopropylpyridin-3-yl)ethyl)carbamoyl)-2,3-dimethyl-1H-indol-1-yl)methyl)-[1,1′-biphenyl]-2-carboxylic acid], the IC50 on GST-PPARG-LBD came to 59 nM. Further, the EC50 in test [1] (setting [2]) came out at 3760 nM. Further, in test [1] (setting [3]), the activation at 10 µM worked out at 20%.

For `Cc1c(C)n(Cc2ccc(-c3ccccc3C(=O)O)cc2)c2ccc(C(=O)N[C@H](C)c3ccc(C4CC4)nc3)cc12` [Example 264, (R)-4′-((5-((1-(6-cyclopropylpyridin-3-yl)ethyl)carbamoyl)-2,3-dimethyl-1H-indol-1-yl)methyl)-[1,1′-biphenyl]-2-carboxylic acid], on GST-PPARG-LBD, the IC50 stood at 32 nM. The EC50 in test [1] (setting [2]) was 1990 nM. In test [1] (setting [3]), the activation at 10 µM amounted to 35%.

Take `Cc1c(C)n(Cc2ccc(-c3ccccc3C(=O)O)cc2)c2ccc(C(=O)N[C@@H](C)c3cc(C4CC4)ccn3)cc12` [Example 266, (S)-4′-((5-((1-(4-cyclopropylpyridin-2-yl)ethyl)carbamoyl)-2,3-dimethyl-1H-indol-1-yl)methyl)-[1,1′-biphenyl]-2-carboxylic acid]: at GST-PPARG-LBD, the concentration for half-maximal inhibition (IC50) was determined as 8 nM. For the same compound, the EC50 in test [1] (setting [2]) was 588 nM. Further, the activation at 10 µM in test [1] (setting [3]) stood at 25%.

As for `Cc1c(C)n(Cc2ccc(-c3ccccc3C(=O)O)cc2)c2ccc(C(=O)N[C@@H](C)c3ccnc(Br)c3)cc12` [Example 267, (S)-4′-((5-(1-(2-bromopyridin-4-yl)ethylcarbamoyl)-2,3-dimethyl-1H-indol-1-yl)methyl)biphenyl-2-carboxylic acid], the IC50 on GST-PPARG-LBD was 98 nM. Besides, the EC50 in test [1] (setting [2]) stood at 2490 nM. Besides, the activation at 10 µM in test [1] (setting [3]) came out at 40%.

As for `Cc1c(C)n(Cc2ccc(-c3ccccc3C(=O)O)cc2)c2ccc(C(=O)N[C@@H](C)c3ccnc(C4CC4)c3)cc12` [Example 268, (S)-4′-((5-(1-(2-cyclopropylpyridin-4-yl)ethylcarbamoyl)-2,3-dimethyl-1H-indol-1-yl)methyl)biphenyl-2-carboxylic acid], the IC50 at GST-PPARG-LBD worked out at 352 nM. The EC50 in test [1] (setting [2]) came out at 8970 nM. Moreover, in test [1] (setting [3]), the activation at 10 µM amounted to 20%.

As to `Cc1c(C)n(Cc2ccc(-c3ccccc3C(=O)O)cc2)c2ccc(C(=O)N[C@H](C)c3ccnc(Br)c3)cc12` [Example 269, (R)-4′-((5-(1-(2-bromopyridin-4-yl)ethylcarbamoyl)-2,3-dimethyl-1H-indol-1-yl)methyl)biphenyl-2-carboxylic acid], the IC50 at GST-PPARG-LBD was found to be 8 nM. The EC50 in test [1] (setting [2]) stood at 907 nM. Also, the activation at 10 µM in test [1] (setting [3]) worked out at 40%.

Consider `Cc1c(C)n(Cc2ccc(-c3ccccc3C(=O)O)cc2)c2ccc(C(=O)N[C@H](C)c3ccnc(C4CC4)c3)cc12` [Example 270, (R)-4′-((5-(1-(2-cyclopropylpyridin-4-yl)ethylcarbamoyl)-2,3-dimethyl-1H-indol-1-yl)methyl)biphenyl-2-carboxylic acid], for which the IC50 at GST-PPARG-LBD was 15 nM. The EC50 in test [1] (setting [2]) was determined as 686 nM. Moreover, in test [1] (setting [3]), the activation at 10 µM was found to be 40%.

On to `Cc1c(C)n(Cc2ccc(-c3ccccc3C(=O)O)cc2)c2ccc(C(=O)N[C@H](C)c3cccc(Br)n3)cc12` [Example 271, (R)-4′-((5-(1-(6-bromopyridin-2-yl)ethylcarbamoyl)-2,3-dimethyl-1H-indol-1-yl)methyl)biphenyl-2-carboxylic acid], for which, at GST-PPARG-LBD, the IC50 came to 2 nM. For the same compound, the EC50 in test [1] (setting [2]) stood at 52 nM. Further, the activation at 10 µM in test [1] (setting [3]) was 20%.
